Measurements: patent US11725015B2, “Macrocyclic compound and uses thereof” (President and Fellows of Harvard College, priority 2017, dated 2023)

How the values were obtained:
[1] = test system: KPL-4 subcutaneous xenograft; assay: Antitumor activity in KPL-4 subcutaneous xenograft model in combination with trastuzumab in mice; format: in vivo
Protocol: A human HER-2 positive breast cancer cell line KPL-4, which had been cultured in an RPMI-1640 medium containing 10% FBS, and penicillin and streptomycin, was adjusted to a concentration of 1×10^8 cells/mL with Hank's Balanced Salt Solution to prepare a cell suspension. The cell suspension was inoculated in a volume of 100 μL into a subcutaneous part of a right flank of nude mice, 7 weeks of ages (CAnN.Cg-Foxnlnu/CrlCrlj, female, Charles River Laboratories Japan, Inc.).
On the basis of the volumes of tumors obtained on the first day of administration, the mice were grouped such that averages of the tumor volumes were substantially equal among the groups. The experiment was conducted on groups each consisting of 6 mice. Each test compound was dissolved in DMSO and a solution was stored at the freezer before use. Immediately before the administration, the stock solution was diluted in saline.

[2] = test system: α-SMA positive-CAFs in the FaDu subcutaneous model; assay: Effect on α-SMA positive-CAFs in the FaDu subcutaneous model (Test Example 10); format: in vivo, mice; conditions: two days after administration
Protocol: A human squamous cell carcinoma of the head and neck (SCCHN) cell line FaDu, which had been cultured in an RPMI-1640 medium containing 10% FBS, and penicillin and streptomycin, was adjusted to a concentration of 5×10^7 cells/mL with PBS to prepare a cell suspension. The cell suspension was inoculated in a volume of 100 μL into a subcutaneous part of a right flank of nude mice, 5 to 6 weeks of ages (CAnN.Cg-Foxnlnu/CrlCrlj, female, Charles River Laboratories Japan, Inc.). Ten days after cell inoculation, a test compound in saline with 100 μM of hydroxypropyl-β-cyclodextrin was intravenously administered at ½ MTD and MTD. The experiment was conducted on groups each consisting of 3 mice. Two days after administration, tumor samples were collected and fixed with IHC Zinc Fixative (BD Pharmingen) at 4° C. for 24 hr. Paraffin-embedded tissues were sectioned (3 μm), mounted on positively charged slides, and air-dried for 6 hr. Immunohistochemical staining of α-SMA was conducted using Ventana autostainer model Discover XT (Roche Diagnostics). Sections were deparaffinized, conditioned and the antigens were retrieved with proprietary buffers, EZPrep and CC1 (Ventana Medical Systems). Mouse anti-α-SMA monoclonal antibody conjugated with alkaline phosphatase (clone 1A4, Sigma) was applied at 5 μg/mL. Sections were incubated with the antibody for 6 hr. The detection was performed with RedMap kit (Ventana Medical Systems, Inc). Sections were dehydrated in graded ethanols, defatted in xylene replacement and covered with DPX (Merck KGaA). The serial tumor slices were deparaffinized and stained with Mayer's hematoxylin (Muto Pure Chemicals) for 1 min. Sections were dehydrated in graded ethanols, defatted in xylene replacement and covered with DPX (Merck KGaA).
Immunostained slides were scanned using Vectra 2 Automated Slide Imaging System (Perkin Elmer Inc.). The area of the α-SMA-positive region in the whole tumor was quantified by counting the α-SMA-positive objects using inForm 2 software (PerkinElmer Inc.). Area of the tumor region was measured by assessing the hematoxylin-staining area using in Form 2 software (PerkinElmer Inc.). The area of the α-SMA positive region was normalized by the area of the tumor region. A suppression rate of the α-SMA positive area of the test compound-dosing group was calculated with the below formula, and shown in Table 10.

[3] = test system: human small bowel cancer cell line HuTu 80; assay: HuTu 80 growth inhibition assay; format: cell-based; conditions: 3 days incubation, CellTiter-Glo
Protocol: In this assay, the growth inhibitory activities of test compounds in the human small bowel cancer cell line HuTu 80, which was isolated from duodenal tissue were measured. HuTu 80 cells were maintained in EMEM medium containing 10% FBS, penicillin and streptomycin in a 5% CO2 incubator (37° C.). To each well of a 96-well plate (Becton, Dickinson and Company, 353219), 100 μL of a HuTu80 cell suspension adjusted to a concentration of 3×10^4 cells/mL with the culture medium was added, and the cells were incubated overnight in a 5% CO2 incubator (37° C.). On the next day, 100 μL of Compound (1) or Halichondrin B in three-fold dilution series suspended in the culture medium was added to each well, and the resultant was incubated for 3 days in a 5% CO2 incubator (37° C.). Then, cell viability was determined by CellTiter-Glo® Luminescent Cell Viability Assay (Promega) with EnVision 2103 Multilabel Reader (Perkin-Elmer, Wellesley, Mass.). Value of the wells containing cells without adding the test compounds was defined as 100% and the value of the wells containing no cells was defined as 0%. The concentrations of the test compounds necessary for inhibiting the cell growth by 50% (i.e., an IC50 value) were calculated and are shown in Table 15.

[4] = test system: FaDu subcutaneous xenograft; assay: Antitumor effects in FaDu subcutaneous xenograft model in mice as monotherapy; format: in vivo
Protocol: A human squamous cell carcinoma of the head and neck (SCCHN) cell line FaDu, which had been cultured in an RPMI-1640 medium containing 10% FBS, and penicillin and streptomycin, was adjusted to a concentration of 4.8×10^7 cells/mL with Hanks' Balanced Salt Solution to prepare a cell suspension. The cell suspension was inoculated in a volume of 100 μL into a subcutaneous part of a right flank of nude mice, 7 weeks of ages (CAnN.Cg-Foxn1nu/CrlCrlj, female, Charles River Laboratories Japan Inc.).
On the basis of the volumes of tumors obtained on the first day of administration, the mice were grouped such that averages of the tumor volumes were substantially equal among the groups. Each test compound was dissolved in DMSO and a solution was stored at the freezer before use. Immediately before the administration, the stock solution was diluted in saline with 100 μM of hydroxypropyl-β-cyclodextrin. Each evaluation sample was intravenously administered at a maximum tolerable dose (MTD). Incidentally, the experiment was conducted on groups each consisting of 4 mice.

[5] = test system: FaDu subcutaneous xenograft; assay: Antitumor effects in FaDu subcutaneous xenograft model in combination with cetuximab in mice; format: in vivo
Protocol: A human squamous cell carcinoma of the head and neck (SCCHN) cell line FaDu, which had been cultured in an RPMI-1640 medium containing 10% FBS, and penicillin and streptomycin, was adjusted to a concentration of 5×10^7 cells/mL with Hanks' Balanced Salt Solution to prepare a cell suspension. The cell suspension was inoculated in a volume of 100 μL into a subcutaneous part of a right flank of nude mice, 7 weeks of ages (CAnN.Cg-Foxnlnu/CrlCrlj, female, Charles River Laboratories Japan Inc.).
On the basis of the volumes of tumors obtained on the first day of administration, the mice were grouped such that averages of the tumor volumes were substantially equal among the groups. Each test compound was dissolved in DMSO and a solution was stored at the freezer before use. Immediately before the administration, the stock solution was diluted in saline with 100 μM of hydroxypropyl-β-cyclodextrin. […] Incidentally, the experiment was conducted on groups each consisting of 4 mice.

In the case of C=C1C[C@@H]2CC[C@@]34C[C@H]5O[C@H]6[C@@H](O3)[C@H]3O[C@H](CC[C@@H]3O[C@H]6C5O4)CC(=O)O[C@@H]3[C@@H](C)[C@@H]4O[C@@H]5C[C@]6(C[C@@H]7O[C@]8(C[C@H](C)[C@@H]9O[C@H](CN)[C@H](O)C[C@@H]9O8)C[C@H](C)[C@@H]7O6)O[C@@H]5C[C@@H]4O[C@H]3C[C@H]3O[C@@H](CC[C@@H]1O2)C[C@@H](C)C3=C [Compound (1)], the “Tumor Regression (%)” value ([1]; 0.09 mg/kg intravenously + trastuzumab 10 mg/kg) is reported as 83%, the “Tumor Regression (%)” value ([1]; 0.09 mg/kg intravenously, without trastuzumab) is reported as 43% and the “Tumor Regression (%)” value ([1]; 0.18 mg/kg intravenously + trastuzumab 10 mg/kg) is reported as 100%. For the same compound, the “Tumor Regression (%)” value ([1]; 0.18 mg/kg intravenously, without trastuzumab) was 87%, the “Suppression rate of α-SMA positive area (%)” value (“Suppression rate … (%)” below) ([2]; 0.10 mg/kg intravenously) was 21% and the “Suppression rate … (%)” value ([2]; 0.20 mg/kg intravenously) was 28%. For the same compound, the IC50 [3] was 0.019 nM, the “Tumor Regression (%)” value ([4]; 0.2 mg/kg intravenously (MTD)) was 43% and the “Tumor Regression on day 35 (%)” value ([5]; 0.05 mg/kg intravenously + cetuximab 20 mg/kg) was 38%. The “Tumor Regression on day 35 (%)” value ([5]; 0.1 mg/kg intravenously + cetuximab 20 mg/kg) was 60%.
For C=C1C[C@@H]2CC[C@@]34C[C@H]5O[C@H]6[C@@H](O3)[C@H]3O[C@H](CC[C@@H]3O[C@H]6[C@H]5O4)CC(=O)O[C@@H]3[C@@H](C)[C@@H]4O[C@@H]5C[C@]6(C[C@@H]7O[C@]8(C[C@H](C)[C@@H]9O[C@H]([C@@H](O)C[C@@H](O)CO)C[C@@H]9O8)C[C@H](C)[C@@H]7O6)O[C@@H]5C[C@@H]4O[C@H]3C[C@H]3O[C@@H](CC[C@@H]1O2)C[C@@H](C)C3=C [Halichondrin B, reference compound], the “Suppression rate … (%)” value ([2]; 0.025 mg/kg intravenously) was 7%, the “Suppression rate … (%)” value ([2]; 0.05 mg/kg intravenously) was 3% and the IC50 [3] was 0.031 nM. The “Tumor Regression (%)” value ([4]; 0.05 mg/kg intravenously (MTD)) was 0%, the “Tumor Regression on day 35 (%)” value ([5]; 0.0125 mg/kg intravenously + cetuximab 20 mg/kg) was −38% and the “Tumor Regression on day 35 (%)” value ([5]; 0.025 mg/kg intravenously + cetuximab 20 mg/kg) was −2%.
